Data published in PubChem BioAssay (NCI).
Several values for one entry are separate records, joined by “and”; a condition that tells them apart may be missing. Identical values can stand only once.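 Cells were grown in 96-well plates and exposed to each compound for 48 hours at five concentrations; endpoints were interpolated linearly between bracketing concentrations, or set to the highest concentration if not reached. GI50 is the concentration that inhibits growth by half. TGI: total growth inhibition.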

How the values were obtained:
Experiment in all cases: inhibition of tumour cell growth, NCI panel, 48 h
[1] = test system: ACHN renal
[2] = test system: SF-295 CNS
[3] = test system: SW-620 colon
[4] = test system: EKVX NSCLC
[5] = test system: SF-539 CNS
[6] = test system: SN12C renal
[7] = test system: NCI-H23 lung
[8] = test system: 786-0 renal
[9] = test system: LOX IMVI melanoma
[10] = test system: HOP-62 NSCLC

Compound | GI50 [1] | TGI [1] | GI50 [2] | GI50 [3] | GI50 [4] | TGI [4] | GI50 [5] | GI50 [6] | GI50 [7] | TGI [7] | GI50 [8] | GI50 [9] | GI50 [10] | TGI [2] | TGI [3] | TGI [5] | TGI [6] | TGI [8] | TGI [9] | TGI [10]
Cc1cc(O)c(C(C)C)cc1S(=O)(=O)O (tested in a mixture with another compound) | 1.04 µM | > 100 µM and 10.9 µM | 0.281 µM | 0.404 µM | 0.678 µM | > 100 µM and 14.3 µM | 0.319 µM | 0.448 µM | 0.427 µM | > 100 µM and 10.4 µM | 0.586 µM | 0.483 µM | 0.442 µM |  |  |  |  |  |  | 
O=C(O)C(/C=C/c1ccccc1)c1ccccc1 (configuration not stated) |  | > 100 µM |  |  |  | > 100 µM |  |  |  | > 100 µM |  |  |  | > 100 µM | > 100 µM | > 100 µM | > 100 µM | > 100 µM | > 100 µM | > 100 µM
CN(C)CCN1C(=O)c2ccccc2N(C)c2ccccc21 | > 100 µM | > 100 µM | > 100 µM | > 100 µM | > 100 µM | > 100 µM | > 100 µM | > 100 µM | > 100 µM | > 100 µM | > 100 µM | > 100 µM | > 100 µM | > 100 µM | > 100 µM | > 100 µM | > 100 µM | > 100 µM | > 100 µM | > 100 µM
COC(=O)C1(C)CCC(c2ccc(C)cc2)=C(CC(=O)O)C1 (configuration not stated) |  | > 100 µM |  |  |  | > 100 µM |  |  |  | > 100 µM |  |  |  | > 100 µM | > 100 µM | > 100 µM | > 100 µM | > 100 µM | > 100 µM | > 100 µM
O=[N+]([O-])c1cc(C(F)(F)F)cc([N+](=O)[O-])c1CCl |  | 27.9 µM |  |  |  | 13.4 µM |  |  |  | 5.7 µM |  |  |  | 10.8 µM | 1.63 µM | 9.23 µM | 3.08 µM | 8.21 µM | 0.274 µM | 30.6 µM
Cc1cc(=O)n(-c2ccccc2C)c(C)n1 |  | > 100 µM |  |  |  | > 100 µM |  |  |  | > 100 µM |  |  |  | > 100 µM | > 100 µM | > 100 µM | > 100 µM | > 100 µM | > 100 µM | > 100 µM
CCC(C)(CC(C)(C)C(=O)NCC(=O)NC(Cc1ccccc1)C(=O)NC(Cc1ccccc1)C(=O)NCC(=O)NC1CC(OC2CC(O)(C(=O)CO)Cc3c(O)c4c(c(O)c32)C(=O)c2c(OC)cccc2C4=O)OC(C)C1O)C(=O)NCC(C)O (configuration not stated) | 73.9 mg/L | > 150 mg/L | 75.9 mg/L | 131 mg/L | > 150 mg/L | > 150 mg/L | 53 mg/L | 81.2 mg/L | 72.9 mg/L | > 150 mg/L | 54.3 mg/L | 35.2 mg/L | 63.7 mg/L | > 150 mg/L | > 150 mg/L | > 150 mg/L | > 150 mg/L | > 150 mg/L | > 150 mg/L | > 150 mg/L
C#Cc1c(F)ccc2cc(O)cc(-c3ncc4c(N5CC6CCC(C5)N6)nc(OC[C@@]56CCCN5C[C@H](F)C6)nc4c3F)c12 | > 39.4 µM | > 53.8 µM | 15.9 µM | 1.32 µM | 21.7 µM | > 54.6 µM | 14 µM | 14.8 µM | 1.94 µM | 15.1 µM | 15 µM | 15.5 µM | 2.18 µM | 32 µM | 10.3 µM | 27.2 µM | 31 µM | 31 µM | 41.9 µM | 22.4 µM
COc1ccc(-c2cn(-c3cc(OC)c(OC)c(OC)c3)c(SCc3ccccc3)n2)cc1OC | > 100 µM | > 100 µM | > 100 µM | > 100 µM | > 100 µM | > 100 µM | > 100 µM | > 100 µM | > 100 µM | > 100 µM | > 100 µM | > 100 µM | > 100 µM | > 100 µM | > 100 µM | > 100 µM | > 100 µM | > 100 µM | > 100 µM | > 100 µM
COc1ccc(/C(COc2ccc3c(=O)cc(-c4ccccc4)oc3c2)=N\O)cc1 | 9.5 µM | 19 µM | 12.5 µM | > 35.6 µM | 2.05 µM | > 18 µM | 12.8 µM | 9.36 µM | 29.5 µM | > 50 µM | 17.2 µM | 9.4 µM | 26.1 µM | 42.8 µM | > 50 µM | 24.3 µM | 36.4 µM | > 50 µM | 24.4 µM | > 50 µM
CC(C)(C)OC(=O)N1CCN(CCn2cc(C(F)(F)F)c3c(Cl)ncnc32)CC1 | 16.9 µM | 39.3 µM | 14.5 µM | 2.2 µM | 11.3 µM | 25.7 µM | 12.8 µM | 4.05 µM | 2 µM | 4.32 µM | 14 µM | 1.73 µM | 2.19 µM | 28.1 µM | 4.64 µM | 26.1 µM | 15.1 µM | 27.2 µM | 3.24 µM | 4.91 µM
COc1cc(C[C@H]2c3cc(OC)c(OC)cc3CCN2C)c(Oc2cc3c(cc2OC)-c2c(OC)c(OC)cc4c2[C@H](C3)N(C)CC4)cc1OC | 14.5 µM | 30 µM and 27.5 µM | 16.5 µM | 13.3 µM | 17.6 µM | 34.6 µM and 32.7 µM | 3.97 µM | 16.6 µM | 17.8 µM | 30.2 µM and 36.2 µM | 8.97 µM | 9.21 µM | 19.9 µM | 21 µM and 30.7 µM | 22.6 µM and 32.5 µM | 16.2 µM and 9.41 µM | 39.8 µM and 30.8 µM | 14.1 µM and 21.9 µM | 14.7 µM and 24.3 µM | 24 µM and 35.6 µM
COc1cc2c(c(OC)c1OC)-c1ccc(SC)c(=O)cc1C(CO)C2 (configuration not stated) | < 0.01 µM | > 100 µM | < 0.01 µM | < 0.01 µM | < 0.01 µM | > 100 µM | < 0.01 µM | < 0.01 µM | < 0.01 µM | < 0.01 µM | < 0.01 µM | < 0.01 µM | < 0.01 µM | > 100 µM | > 100 µM |  | > 100 µM | > 100 µM | 19.8 µM | > 100 µM
COc1cc(OC(=O)c2ccccc2)cc2c1C(=O)C=CC2=O |  | 26.4 µM |  |  |  | 30.2 µM |  |  |  | 33.3 µM |  |  |  | 32.1 µM | 39.2 µM | 41.7 µM | 45 µM | 18.9 µM | 36.3 µM | 58.6 µM
OC(c1ccccc1)(c1ccccc1)c1ccncc1 |  | > 100 µM |  |  |  | > 100 µM |  |  |  | > 100 µM |  |  |  | > 100 µM | > 100 µM | > 100 µM | > 100 µM | > 100 µM | > 100 µM | > 100 µM
